According to paper PMC10002984, “Dual PTP1B/TC-PTP Inhibitors: Biological Evaluation of 3-(Hydroxymethyl)cinnoline-4(1H)-Ones” (International Journal of Molecular Sciences, 2023):

Assays:
Shp1 gene = assay: Gene expression in the liver of obese rats (qPCR), Shp1 gene; type: in vivo, rat; conditions: five-day treatment
Protocol: Further, six groups were formed: control (Con, n = 10), obesity (Ob, n = 10), obese rats with five-day treatment with compounds 1 (Ob + 1, n = 5), 2 (Ob + 2, n = 5), 3 (Ob + 3, n = 10), and 4 (Ob + 4, n = 10). All compounds were administered in DMSO (300 µL) at a daily dose of 7 mg/kg (1 and 2), 8 mg/kg (3), and 10 mg/kg (4) (i.p.), based on the results of the preliminary experiments. The used doses of compounds 1–4, in terms of the number of moles of each compound per kg of animal body weight, were equivalent. Control and obese rats received DMSO in the same volumes (300 µL), instead of the tested compounds. During the five days of the experiment, all animals were transferred to standard food and had free access to food and drinking water. […] The test was carried out on the morning of the next day after the last (fifth) injection of the compounds or DMSO, after a 10 h fast. The rest of the animals (n = 5 in each group) were anesthetized and decapitated on the last day of the experiment. The blood and liver samples were taken to measure blood glucose and hormone levels and gene expression in the liver.
The total RNA was isolated from the liver samples of rats using the “ExtractRNA Reagent” (Evrogen, Moscow, Russia), and the samples containing 1 μg of RNA were transcribed to cDNA using the random oligodeoxynucleotide primers and the “MMLV RT kit” (Evrogen, Russia). The amplification procedure was carried out in the mixture containing 10 ng of reverse transcribed product, 0.4 μM of the forward and reverse primers, and the “qPCRmix-HS SYBR + LowROX kit” (Evrogen, Russia). The amplified signals were detected using the “Applied Biosystems® 7500 Real-Time PCR System” (Life Technologies, Carlsbad, CA, USA, Thermo Fisher Scientific Inc., USA). The primers that were used to assess the expression of genes encoding the phosphatase PTP1B, TC-PTP, and SHP1 and the insulin and leptin receptors are presented in Table 4. The obtained data were calculated with the delta–delta Ct method and expressed as a fold expression, relative to the corresponding control. The expression of the gene encoding 18S RNA was used as an endogenous control.

[1] = target: T1, human recombinant TC-PTP protein (Homo sapiens, UniProt P17706); assay: Phosphatase activity assay with DiFMUP, TC-PTP inhibition; type: biochemical; conditions: DiFMUP 35 µM, 80 ng/mL TC-PTP, compounds 0.1–80 μM; M ± SEM (n = 24); read-out: IC50 for the inhibitory effect on TC-PTP activity
T1 construct: purchased Sigma-Aldrich SRP0218
T1 sequence (P17706 1-415): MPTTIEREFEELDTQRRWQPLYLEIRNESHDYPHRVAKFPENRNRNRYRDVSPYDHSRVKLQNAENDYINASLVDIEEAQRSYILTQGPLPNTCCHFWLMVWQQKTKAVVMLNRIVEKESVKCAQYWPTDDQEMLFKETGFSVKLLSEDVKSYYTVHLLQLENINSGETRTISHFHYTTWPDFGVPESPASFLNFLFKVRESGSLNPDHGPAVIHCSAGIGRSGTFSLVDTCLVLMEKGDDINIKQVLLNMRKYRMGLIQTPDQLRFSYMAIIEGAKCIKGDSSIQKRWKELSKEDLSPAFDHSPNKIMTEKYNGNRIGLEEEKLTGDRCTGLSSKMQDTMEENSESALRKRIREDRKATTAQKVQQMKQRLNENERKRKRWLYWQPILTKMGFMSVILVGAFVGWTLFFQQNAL
Protocol: The measurement of the activity of the phosphatases PTP1B and TC-PTP and their inhibition was carried out using 6,8-difluoro-4methylumbelliferyl phosphate (DiFMUP), as previously described. The stock solution of recombinant human PTP1B protein (#ab51277, Abcam, Cambridge, UK), at a concentration of 1 µg/µL, was prepared in 25 mM Tris–HCl (pH 7.5), 20% glycerol, 2 mM β-mercaptoethanol, 1 mm EDTA, and 1 mM DTT, and stored at −20 °C. Active human recombinant TC-PTP protein was purchased from Sigma-Aldrich (#SRP0218, Saint Louis, MO, USA) as the aqueous buffer solution at a concentration of 2.9 mg/mL, and aliquots were stored at −80 °C. The fluorogenic substrate DiFMUP (#D6567, Molecular Probes, Thermo Fisher Scientific, Waltham, MA, USA) was dissolved at a concentration of 10 mM in N,N-dimethylformamide and stored in aliquots at −20 °C. The 6,8-difluoro-7-hydroxy-4-methylcoumarin (DiFMU, #D6566, Molecular Probes, Thermo Fisher Scientific, Waltham, MA, USA) was used as a reference fluorescent standard. For the IC50 determination, the assay was carried out in black flat bottom 96-well plates using a reaction volume of 100 µL. The phosphatases (PTP1B or TC-PTP) were preincubated with the tested compounds (0.1–80 µM) in 50 mM HEPES (pH 6.9), 100 mM NaCl, 1 mM EDTA, 2 mM DTT, 0.1 mg/mL BSA for 5 min at 37 °C. The following concentrations of the compounds were studied: 0.1, 0.2, 0.5, 1, 2, 5, 10, 20, 40, and 80 μM. The reactions were initiated by the addition of the fluorogenic substrate DiFMUP and diluted in the assay buffer. Progress curves for hydrolysis reaction were obtained with 25 µM of DiFMUP for 80 ng/mL PTP1B, and 35 µM of DiFMUP for 80 ng/mL TC-PTP. Fluorescence excitation of hydrolyzed DiFMUP and the fluorescent standard DiFMU was monitored at 355 nm and emission was detected at 460 nm for 6–10 min at 30 s intervals in a Fluoroskan Ascent FL microplate reader (Thermo Electron Corporation, Vantaa, Finland). Initial velocities of the reactions were used to calculate the IC50 values using GraphPad Prism.
The data on food intake, body weight, and biochemical parameters in rats, as well as the PCR data, were analyzed using the IBM SPSS Statistics 22 software (“IBM”, Armonk, NY, USA), and the results are presented as mean ± standard error of the mean (M ± SEM). All differences are considered significant at p < 0.05. The calculation of the IC50 values of the studied inhibitors for the initial velocities of enzymatic reactions (PTP1B, TC-PTP) was carried out using the nonlinear regression analysis with GraphPad Prism 8 (“GraphPad Software, Inc.”, Boston, MA, USA). The statistical analysis was carried out using the Wilcoxon test for pairwise comparison and Dunn’s test for multiple comparisons.

O=c1c(CO)n[nH]c2ccccc12 [Compound 1]
expression of the Shp1 gene in the liver (Shp1 gene): increased | IC50 [1]: 18.9 ± 2.06 µM

O=c1c(CO)n[nH]c2ccc(Cl)cc12 [Compound 3, 6-Chloro-3-(hydroxymethyl)cinnolin-4(1H)-one]
expression of the Shp1 gene in the liver (Shp1 gene): did not affect | IC50 [1]: 2.98 ± 0.76 µM

O=c1c(CO)n[nH]c2ccc(Br)cc12 [Compound 4, 6-Bromo-3-(hydroxymethyl)cinnolin-4(1H)-one]
expression of the Shp1 gene in the liver (Shp1 gene): did not affect | IC50 [1]: 26.5 ± 4.66 µM
